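Growth conditions: 96-well plates. Treatment: test compound, 48 hours, 5 concentrations. Analysis: linear interpolation between bracketing concentrations; unreached endpoints set to highest concentration. GI50: concentration for 50% inhibition of growth.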 The source made the active and inactive calls. Rule as the data show it: active = GI50 up to about 1.1 µM and inactive = higher.
Columns and labels:
Assay in all cases: NCI tumour cell line growth inhibition, 48 h
[1] = system: ACHN
[2] = system: CCRF-CEM
[3] = system: HCC 2998
[4] = system: HCT-116
[5] = system: HL-60
[6] = system: HOP-62
[7] = system: KM12
[8] = system: M14
[9] = system: MCF7
[10] = system: MDA-MB-231
[11] = system: MOLT-4
[12] = system: NCI/ADR-RES
[13] = system: OVCAR-8
[14] = system: SK-MEL-28
[15] = system: SK-OV-3
[16] = system: SN12C
[17] = system: SNB-19
[18] = system: TK-10
[19] = system: U-251
[20] = system: UO-31

SMILES | GI50 [1] | GI50 [2] | GI50 [3] | GI50 [4] | GI50 [5] | GI50 [6] | GI50 [7] | GI50 [8] | GI50 [9] | GI50 [10] | GI50 [11] | GI50 [12] | GI50 [13] | GI50 [14] | GI50 [15] | GI50 [16] | GI50 [17] | GI50 [18] | GI50 [19] | GI50 [20]
O=C1c2ccccc2-c2c1c1ccccc1c(=O)n2CCO | 2.17 µM (inactive) | 3.49 µM (inactive) | 24.8 µM (inactive) | 4.83 µM (inactive) | 2.4 µM (inactive) | 5.4 µM (inactive) | 6.38 µM (inactive) | > 100 µM (inactive) | 4.41 µM (inactive) | 46 µM (inactive) | 2.14 µM (inactive) | 14.6 µM (inactive) | 9.38 µM (inactive) | > 76.6 µM (inactive) | 30.8 µM (inactive) | 10.8 µM (inactive) | 6.1 µM (inactive) | > 50.5 µM (inactive) | 8.61 µM (inactive) | 4.06 µM (inactive)
CC1(c2ccc(Cl)s2)CC(c2ccc(Cl)s2)=C(C#N)C(=C(C#N)C#N)N1 (stereo not given) | 17.5 µM (inactive) | 16 µM (inactive) | 18.9 µM (inactive) | 17.3 µM (inactive) | 16.7 µM (inactive) | 18.8 µM (inactive) | 18 µM (inactive) | 19.4 µM (inactive) | 17.6 µM (inactive) | 23.2 µM (inactive) | 28.1 µM (inactive) | 19.3 µM (inactive) | 20.8 µM (inactive) | 19.4 µM (inactive) | 16.9 µM (inactive) | 21 µM (inactive) | 20.8 µM (inactive) | 22.4 µM (inactive) | 17.3 µM (inactive) | 18.7 µM (inactive)
CN1C/C(=C\c2cccs2)C2=NC(=S)NC(c3cccs3)C2C1 (stereo not given) | 64.9 µM (inactive) | 19.7 µM (inactive) | 93.8 µM (inactive) | 64.4 µM (inactive) | 2.22 µM (inactive) | > 100 µM (inactive) | 57 µM (inactive) | 55.2 µM (inactive) | 35.6 µM (inactive) | > 100 µM (inactive) | 19.5 µM (inactive) | 44.4 µM (inactive) | 40.7 µM (inactive) | 93.3 µM (inactive) | > 100 µM (inactive) | > 100 µM (inactive) | > 100 µM (inactive) | 46.1 µM (inactive) | > 100 µM (inactive) | 38.3 µM (inactive)
CCN(CCCl)c1cccc(NC(=O)c2ccc(C(=O)Nc3cccc(CN(C)C)c3)cc2)c1 | 0.0354 µM (active) | 0.027 µM (active) | 0.123 µM (active) | 0.0611 µM (active) | 0.0292 µM (active) | 0.0641 µM (active) | 0.129 µM (active) | 0.204 µM (active) | 0.0215 µM (active) | 0.195 µM (active) | 0.0246 µM (active) | 2.76 µM (inactive) | 0.183 µM (active) | 0.165 µM (active) | 0.298 µM (active) | 0.335 µM (active) | 0.0497 µM (active) | 0.372 µM (active) | 0.0349 µM (active) | 0.475 µM (active)
O=C1CC(c2cccc(Br)c2)n2cccc21 (stereo not given) | 68.5 µM (inactive) | > 100 µM (inactive) | 54.7 µM (inactive) | > 100 µM (inactive) | 28.1 µM (inactive) | > 100 µM (inactive) | 46.2 µM (inactive) | 80.7 µM (inactive) | 86.9 µM (inactive) | > 100 µM (inactive) | 40.1 µM (inactive) | > 100 µM (inactive) | > 100 µM (inactive) | > 100 µM (inactive) | > 100 µM (inactive) | > 100 µM (inactive) | > 100 µM (inactive) | > 100 µM (inactive) | > 100 µM (inactive) | 21.5 µM (inactive)
CC(=O)OC1O[C@@H](C(C)(C)O)CC[C@@H]1[C@H]1CC[C@@]2(C)C3=C(CC[C@]12C)[C@@]1(C)C[C@@H](OC(=O)CC(C)(O)CC(=O)O)[C@H](OC(C)=O)C(C)(C)C1CC3 (stereo not given in full) | 18 µM (inactive) | 20.8 µM (inactive) | 19 µM (inactive) | > 10 µM (inactive) | 24.4 µM (inactive) | 18.8 µM (inactive) | 21.9 µM (inactive) | 19.5 µM (inactive) | 18.3 µM (inactive) | 23 µM (inactive) | 19.4 µM (inactive) | 18.1 µM (inactive) | 17.1 µM (inactive) | 16.3 µM (inactive) | 18.2 µM (inactive) | 19.2 µM (inactive) | 17.7 µM (inactive) | 19.1 µM (inactive) | 16 µM (inactive) | 15 µM (inactive)
CN(C)CCNC(=O)c1cccc2c1Oc1cccc([N+](=O)[O-])c1O2 | 18.7 µM (inactive) | 29.6 µM (inactive) | 23.7 µM (inactive) | 16.9 µM (inactive) | 17.1 µM (inactive) | 16.1 µM (inactive) | 22.8 µM (inactive) | 16.2 µM (inactive) | 19.1 µM (inactive) | 4.33 µM (inactive) | 4.74 µM (inactive) | 19.1 µM (inactive) | 20.8 µM (inactive) | 18.8 µM (inactive) | 14 µM (inactive) | 23.3 µM (inactive) | 30 µM (inactive) | 21.4 µM (inactive) | 21 µM (inactive) | 15.7 µM (inactive)
O=C(O)c1ccccc1/C=C1/Nc2ccccc2C1=O | 57.3 µM (inactive) | 44.9 µM (inactive) | > 100 µM (inactive) | 81.5 µM (inactive) | 64 µM (inactive) | > 100 µM (inactive) | 37.9 µM (inactive) | > 100 µM (inactive) | 48.8 µM (inactive) | > 100 µM (inactive) | 91.4 µM (inactive) | > 100 µM (inactive) | > 100 µM (inactive) | > 100 µM (inactive) | > 100 µM (inactive) | > 100 µM (inactive) | > 100 µM (inactive) | > 100 µM (inactive) | > 100 µM (inactive) | 50 µM (inactive)
Cc1cc(=O)oc2c(C3=NN(C=O)C(c4ccccc4)C3)c(O)ccc12 (stereo not given) | 14.8 µM (inactive) | 60.5 µM (inactive) | > 87.7 µM (inactive) | 81.1 µM (inactive) | > 100 µM (inactive) | 37.1 µM (inactive) | > 100 µM (inactive) | 51.9 µM (inactive) | > 50.5 µM (inactive) | 59.6 µM (inactive) | > 73.6 µM (inactive) | 61.9 µM (inactive) | 71.1 µM (inactive) | > 100 µM (inactive) | 20.2 µM (inactive) | 90.2 µM (inactive) | 47.4 µM (inactive) | 57.4 µM (inactive) | 32.7 µM (inactive) | 64.3 µM (inactive)
CCNC(=O)Cc1nc2c(N)ncnc2n1C1OC(CO)C(O)C1O (stereo not given) | > 100 µM (inactive) | > 10 µM (inactive) | 95.7 µM (inactive) | > 100 µM (inactive) | 91.4 µM (inactive) | > 100 µM (inactive) | > 100 µM (inactive) | > 100 µM (inactive) | 23.3 µM (inactive) | > 100 µM (inactive) | > 100 µM (inactive) | > 100 µM (inactive) | > 100 µM (inactive) | > 100 µM (inactive) | 39 µM (inactive) | > 100 µM (inactive) | > 100 µM (inactive) | > 100 µM (inactive) | > 100 µM (inactive) | > 100 µM (inactive)
C/C(=N\Nc1nc2cc(C(F)(F)F)ccc2s1)c1ccccn1 | 0.113 µM (active) | 0.0853 µM (active) | 2.6 µM (inactive) | 0.0783 µM (active) | 0.127 µM (active) | 2.41 µM (inactive) | 0.526 µM (active) | 0.282 µM (active) | 0.0753 µM (active) | 0.0555 µM (active) | 0.0264 µM (active) | 0.291 µM (active) | 0.0621 µM (active) | 0.211 µM (active) | 0.245 µM (active) | 0.23 µM (active) | 0.968 µM (active) | 2.52 µM (inactive) | 0.448 µM (active) | 0.0316 µM (active)
CC(=O)OCC1OC(n2c(C)c(C)c(C)c(C#N)c2=S)C(OC(C)=O)C(OC(C)=O)C1OC(C)=O (stereo not given) | 48.5 µM (inactive) | > 100 µM (inactive) | > 100 µM (inactive) | 28.6 µM (inactive) | > 100 µM (inactive) | 13.3 µM (inactive) | > 100 µM (inactive) | 44 µM (inactive) | > 100 µM (inactive) | > 100 µM (inactive) | > 100 µM (inactive) | > 100 µM (inactive) | > 100 µM (inactive) | > 100 µM (inactive) | 24.8 µM (inactive) | > 100 µM (inactive) | 33.7 µM (inactive) | 46.6 µM (inactive) | 27.6 µM (inactive) | 14.7 µM (inactive)
COc1ccccc1NC1Oc2cc3c(cc2C(c2cc(OC)c(OC)c(OC)c2)C1C)OCO3 (stereo not given) | 9.91 µM (inactive) | 2.37 µM (inactive) | 3.04 µM (inactive) | 2.42 µM (inactive) | 0.612 µM (active) | 5.26 µM (inactive) | 1.43 µM (inactive) | 3.26 µM (inactive) | 2.65 µM (inactive) | 1.78 µM (inactive) | 3.8 µM (inactive) | 2.59 µM (inactive) | 4.69 µM (inactive) | > 25.1 µM (inactive) | 10.5 µM (inactive) | 5.57 µM (inactive) | 6.56 µM (inactive) | > 100 µM (inactive) | 2.92 µM (inactive) | 3.58 µM (inactive)
O=C1/C(=N/CCc2cc(Br)c(O)c(Br)c2)C=C(O)c2cccnc21 | 2.68 µM (inactive) | 5.24 µM (inactive) | 6.78 µM (inactive) | 2.46 µM (inactive) | 4.88 µM (inactive) | 1.11 µM (active) | 2.94 µM (inactive) | 1.31 µM (inactive) | 1.61 µM (inactive) | 7.35 µM (inactive) | 6.75 µM (inactive) | 4.75 µM (inactive) | 4.38 µM (inactive) | 1.78 µM (inactive) | 7.26 µM (inactive) | 1.35 µM (inactive) | 2.3 µM (inactive) | 3.33 µM (inactive) | 1.93 µM (inactive) | 3.12 µM (inactive)

From ChEMBL document CHEMBL1201862, “PubChem BioAssay data set” (2004)
